Laboratory results reported in ChEMBL document CHEMBL5715949, “Discovery of a selective irreversible BMX inhibitor for prostate cancer” (ACS Chem Biol, 2013).
Activity calls are given as the source filed them. No cut-off for these calls is given here.

Legend:
[1] = target: Serine/threonine-protein kinase DCLK3 (Homo sapiens) (UniProt Q9C098); assay: Inhibition of DCAMKL3 (unknown origin) assessed as remaining activity at 1 uM by Kinome scan method relative to control
[2] = target: Insulin receptor (Homo sapiens) (UniProt P06213); assay: Inhibition of INSR (unknown origin) assessed as remaining activity at 1 uM by Kinome scan method relative to control
[3] = target: Myosin light chain kinase 2, skeletal/cardiac muscle (Homo sapiens) (UniProt Q9H1R3); assay: Inhibition of MYLK2 (unknown origin) assessed as remaining activity at 1 uM by Kinome scan method relative to control
[4] = Inhibition of PI3K/AKT/mTOR signalling pathway in human RV-1 cells assessed as decrease in 4EBP phosphorylation at T37/46 residue at 2.5 uM incubated for 4 hrs by immunoblot analysis; assay type: cell-based
DU-145 = assay: Antiproliferative activity against human DU-145 cells assessed growth inhibition incubated for 2 to 5 days by CellTiter-Glo assay; assay type: functional; conditions: time 2-5 day
[5] = target: Receptor-interacting serine/threonine-protein kinase 1 (Homo sapiens) (UniProt Q13546); assay: Inhibition of RIPK1 (unknown origin) assessed as remaining activity at 1 uM by Kinome scan method relative to control
[6] = target: Non-receptor tyrosine-protein kinase TYK2 (Homo sapiens) (UniProt P29597); assay: Inhibition of TYK2 JH1 domain (unknown origin) assessed as remaining activity at 1 uM by Kinome scan method relative to control
[7] = target: Cyclin-dependent kinase-like 2 (Homo sapiens) (UniProt Q92772); assay: Inhibition of CDKL2 (unknown origin) assessed as remaining activity at 1 uM by Kinome scan method relative to control
[8] = target: Ribosomal protein S6 kinase alpha-1 (Homo sapiens) (UniProt Q15418); assay: Inhibition of N-terminal kinase domain RSK1 (unknown origin) assessed as remaining activity at 1 uM by Kinome scan method relative to control
[9] = Inhibition of PI3K/AKT/mTOR signalling pathway in human RV-1 cells assessed as decrease in S6K phosphorylation at T389 residue at 2.5 uM incubated for 5 days in presence of MK2206 by immunoblot analysis; assay type: cell-based; conditions: time 5.0 day
[10] = target: Ephrin type-A receptor 1 (Homo sapiens) (UniProt P21709); assay: Inhibition of EPHA1 (unknown origin) assessed as remaining activity at 1 uM by Kinome scan method relative to control
[11] = target: Calcium/calmodulin-dependent protein kinase type II subunit alpha (Homo sapiens) (UniProt Q9UQM7); assay: Inhibition of CAMK2A (unknown origin) assessed as remaining activity at 1 uM by Kinome scan method relative to control
[12] = target: Serine/threonine-protein kinase PLK2 (Homo sapiens) (UniProt Q9NYY3); assay: Inhibition of PLK2 (unknown origin) assessed as remaining activity at 1 uM by Kinome scan method relative to control
[13] = target: Receptor-type tyrosine-protein kinase FLT3 (Homo sapiens) (UniProt P36888); assay: Inhibition of FLT3 (unknown origin) assessed as remaining activity at 1 uM by Kinome scan method relative to control
[14] = target: Serine/threonine-protein kinase BRSK2 (Homo sapiens) (UniProt Q8IWQ3); assay: Inhibition of BRSK2 (unknown origin) assessed as remaining activity at 1 uM by Kinome scan method relative to control
[15] = Induction of cell cycle arrest in human RV-1 cells assessed as accumulation of cells at G1 phase at 2.5 uM incubated for 5 days by propidium iodide staining based flow cytometric analysis (reference value: 59.7 %); assay type: functional; conditions: time 5 day
[16] = target: Phosphorylase b kinase gamma catalytic chain, skeletal muscle/heart isoform (Homo sapiens) (UniProt Q16816); assay: Inhibition of PHKG1 (unknown origin) assessed as remaining activity at 1 uM by Kinome scan method relative to control
[17] = target: TRAF2 and NCK-interacting protein kinase (Homo sapiens) (UniProt Q9UKE5); assay: Inhibition of TNIK (unknown origin) assessed as remaining activity at 1 uM by Kinome scan method relative to control
[18] = target: Serine/threonine-protein kinase Nek3 (Homo sapiens) (UniProt P51956); assay: Inhibition of NEK3 (unknown origin) assessed as remaining activity at 1 uM by Kinome scan method relative to control
[19] = target: Ribosomal protein S6 kinase alpha-1 (Homo sapiens) (UniProt Q15418); assay: Inhibition of C-terminal kinase domain RSK1 (unknown origin) assessed as remaining activity at 1 uM by Kinome scan method relative to control
[20] = target: Rho-associated protein kinase 2 (Homo sapiens) (UniProt O75116); assay: Inhibition of ROCK2 (unknown origin) assessed as remaining activity at 1 uM by Kinome scan method relative to control
[21] = target: Dual specificity protein kinase CLK4 (Homo sapiens) (UniProt Q9HAZ1); assay: Inhibition of CLK4 (unknown origin) assessed as remaining activity at 1 uM by Kinome scan method relative to control
[22] = target: Tyrosine-protein kinase Mer (Homo sapiens) (UniProt Q12866); assay: Inhibition of MERTK (unknown origin) assessed as remaining activity at 1 uM by Kinome scan method relative to control
[23] = target: Serine/threonine-protein kinase 3 (Homo sapiens) (UniProt Q13188); assay: Inhibition of MST2 (unknown origin) assessed as remaining activity at 1 uM by Kinome scan method relative to control
[24] = target: Ephrin type-B receptor 2 (Homo sapiens) (UniProt P29323); assay: Inhibition of EPHB2 (unknown origin) assessed as remaining activity at 1 uM by Kinome scan method relative to control
[25] = Induction of cell cycle arrest in human RV-1 cells assessed as accumulation of cells at G1 phase at 2.5 uM incubated for 5 days in presence of MK2206 by propidium iodide staining based flow cytometric analysis (reference value: 59.7 %); assay type: functional; conditions: time 5 day
[26] = target: Serine/threonine-protein kinase ULK3 (Homo sapiens) (UniProt Q6PHR2); assay: Inhibition of ULK3 (unknown origin) assessed as remaining activity at 1 uM by Kinome scan method relative to control
BaF3 = assay: Antiproliferative activity against mouse BaF3 cells expressing TEL-fused BLK assessed growth inhibition incubated for 2 to 5 days by CellTiter-Glo assay; assay type: functional; conditions: time 2-5 day
[27] = target: Hormonally up-regulated neu tumor-associated kinase (Homo sapiens) (UniProt P57058); assay: Inhibition of HUNK (unknown origin) assessed as remaining activity at 1 uM by Kinome scan method relative to control
[28] = target: BDNF/NT-3 growth factors receptor (Homo sapiens) (UniProt Q16620); assay: Inhibition of TRKB (unknown origin) assessed as remaining activity at 1 uM by Kinome scan method relative to control
[29] = Inhibition of PI3K/AKT/mTOR signalling pathway in human RV-1 cells assessed as decrease in FOXO3A phosphorylation at S253 residue at 2.5 uM incubated for 4 hrs by immunoblot analysis; assay type: cell-based
[30] = target: Inhibitor of nuclear factor kappa-B kinase subunit beta (Homo sapiens) (UniProt O14920); assay: Inhibition of IKK-beta (unknown origin) assessed as remaining activity at 1 uM by Kinome scan method relative to control
Inhibitor of nuclear factor kappa-B kinase subunit beta (Homo sapiens), sequence (O14920 whole entry): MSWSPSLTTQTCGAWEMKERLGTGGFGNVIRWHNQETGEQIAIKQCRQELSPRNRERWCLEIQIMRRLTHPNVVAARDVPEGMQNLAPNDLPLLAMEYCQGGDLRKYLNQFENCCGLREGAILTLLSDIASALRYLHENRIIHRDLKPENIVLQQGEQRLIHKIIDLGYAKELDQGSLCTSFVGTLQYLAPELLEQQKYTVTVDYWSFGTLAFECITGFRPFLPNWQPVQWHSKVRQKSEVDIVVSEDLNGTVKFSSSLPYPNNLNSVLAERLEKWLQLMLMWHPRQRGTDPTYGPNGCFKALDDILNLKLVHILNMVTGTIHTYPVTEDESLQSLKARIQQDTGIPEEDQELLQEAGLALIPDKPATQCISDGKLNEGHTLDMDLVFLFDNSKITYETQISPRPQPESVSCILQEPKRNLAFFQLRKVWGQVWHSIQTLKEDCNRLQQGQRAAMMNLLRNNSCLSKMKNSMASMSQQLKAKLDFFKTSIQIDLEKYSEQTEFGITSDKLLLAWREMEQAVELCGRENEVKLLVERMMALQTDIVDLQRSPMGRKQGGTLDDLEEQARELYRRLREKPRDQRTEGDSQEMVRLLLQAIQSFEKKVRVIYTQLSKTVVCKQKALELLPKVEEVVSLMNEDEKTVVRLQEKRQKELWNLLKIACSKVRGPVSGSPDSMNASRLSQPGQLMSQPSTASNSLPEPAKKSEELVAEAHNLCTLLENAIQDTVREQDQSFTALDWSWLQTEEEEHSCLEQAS

Ribosomal protein S6 kinase alpha-1 (Homo sapiens), sequence (Q15418 whole entry, the tested form may be a part): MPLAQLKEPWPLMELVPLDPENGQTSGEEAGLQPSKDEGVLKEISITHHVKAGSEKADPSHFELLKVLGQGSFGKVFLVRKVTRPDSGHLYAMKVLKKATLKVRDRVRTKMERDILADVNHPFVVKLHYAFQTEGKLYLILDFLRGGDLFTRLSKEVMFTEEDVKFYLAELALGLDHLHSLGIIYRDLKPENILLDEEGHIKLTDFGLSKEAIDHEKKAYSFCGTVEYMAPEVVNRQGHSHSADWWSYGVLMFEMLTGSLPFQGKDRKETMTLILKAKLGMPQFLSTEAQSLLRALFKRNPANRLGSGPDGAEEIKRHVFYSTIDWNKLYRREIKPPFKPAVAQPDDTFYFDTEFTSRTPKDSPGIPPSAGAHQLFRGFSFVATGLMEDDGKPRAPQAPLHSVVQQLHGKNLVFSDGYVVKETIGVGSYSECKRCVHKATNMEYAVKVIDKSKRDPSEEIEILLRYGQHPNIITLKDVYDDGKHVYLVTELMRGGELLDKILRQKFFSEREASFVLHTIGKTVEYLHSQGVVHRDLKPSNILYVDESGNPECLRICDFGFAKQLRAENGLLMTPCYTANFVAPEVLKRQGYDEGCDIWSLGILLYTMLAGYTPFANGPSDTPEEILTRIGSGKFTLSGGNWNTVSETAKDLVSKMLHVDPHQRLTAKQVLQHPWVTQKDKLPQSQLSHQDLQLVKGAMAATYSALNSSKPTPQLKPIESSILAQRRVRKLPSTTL
Serine/threonine-protein kinase BRSK2 (Homo sapiens), sequence (Q8IWQ3 whole entry): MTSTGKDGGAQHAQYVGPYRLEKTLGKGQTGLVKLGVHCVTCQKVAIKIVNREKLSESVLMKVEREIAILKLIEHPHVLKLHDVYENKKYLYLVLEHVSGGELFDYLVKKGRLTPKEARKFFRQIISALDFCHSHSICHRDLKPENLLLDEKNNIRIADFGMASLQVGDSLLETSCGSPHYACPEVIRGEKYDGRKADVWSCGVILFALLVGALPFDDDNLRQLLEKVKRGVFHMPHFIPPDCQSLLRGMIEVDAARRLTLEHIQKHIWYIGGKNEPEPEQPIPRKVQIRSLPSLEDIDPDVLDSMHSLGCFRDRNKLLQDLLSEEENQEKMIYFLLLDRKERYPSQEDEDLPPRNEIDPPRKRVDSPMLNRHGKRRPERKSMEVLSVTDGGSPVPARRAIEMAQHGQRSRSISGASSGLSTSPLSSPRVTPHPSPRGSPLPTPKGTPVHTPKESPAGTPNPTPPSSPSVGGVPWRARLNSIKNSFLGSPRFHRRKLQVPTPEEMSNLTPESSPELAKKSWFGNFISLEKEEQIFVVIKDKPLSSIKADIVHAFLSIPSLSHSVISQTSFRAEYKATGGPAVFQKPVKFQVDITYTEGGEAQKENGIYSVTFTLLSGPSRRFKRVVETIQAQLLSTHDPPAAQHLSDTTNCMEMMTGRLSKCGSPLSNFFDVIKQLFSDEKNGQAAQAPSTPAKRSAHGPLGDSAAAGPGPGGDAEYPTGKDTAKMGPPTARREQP
Dual specificity protein kinase CLK4 (Homo sapiens), sequence (Q9HAZ1 whole entry, looked up): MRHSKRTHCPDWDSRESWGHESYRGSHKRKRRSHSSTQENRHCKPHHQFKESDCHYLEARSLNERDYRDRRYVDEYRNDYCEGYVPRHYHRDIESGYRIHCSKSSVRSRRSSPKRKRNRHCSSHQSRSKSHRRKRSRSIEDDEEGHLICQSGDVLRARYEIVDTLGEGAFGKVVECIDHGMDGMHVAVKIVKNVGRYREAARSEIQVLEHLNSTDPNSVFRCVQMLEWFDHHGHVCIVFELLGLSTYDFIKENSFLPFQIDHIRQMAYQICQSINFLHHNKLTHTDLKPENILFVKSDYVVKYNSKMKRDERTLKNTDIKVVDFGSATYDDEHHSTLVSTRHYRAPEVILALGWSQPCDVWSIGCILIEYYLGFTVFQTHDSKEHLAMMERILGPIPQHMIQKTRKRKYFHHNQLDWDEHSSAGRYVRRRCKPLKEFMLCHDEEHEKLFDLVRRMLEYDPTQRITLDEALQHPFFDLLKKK
Serine/threonine-protein kinase PLK2 (Homo sapiens), sequence (Q9NYY3 whole entry, looked up): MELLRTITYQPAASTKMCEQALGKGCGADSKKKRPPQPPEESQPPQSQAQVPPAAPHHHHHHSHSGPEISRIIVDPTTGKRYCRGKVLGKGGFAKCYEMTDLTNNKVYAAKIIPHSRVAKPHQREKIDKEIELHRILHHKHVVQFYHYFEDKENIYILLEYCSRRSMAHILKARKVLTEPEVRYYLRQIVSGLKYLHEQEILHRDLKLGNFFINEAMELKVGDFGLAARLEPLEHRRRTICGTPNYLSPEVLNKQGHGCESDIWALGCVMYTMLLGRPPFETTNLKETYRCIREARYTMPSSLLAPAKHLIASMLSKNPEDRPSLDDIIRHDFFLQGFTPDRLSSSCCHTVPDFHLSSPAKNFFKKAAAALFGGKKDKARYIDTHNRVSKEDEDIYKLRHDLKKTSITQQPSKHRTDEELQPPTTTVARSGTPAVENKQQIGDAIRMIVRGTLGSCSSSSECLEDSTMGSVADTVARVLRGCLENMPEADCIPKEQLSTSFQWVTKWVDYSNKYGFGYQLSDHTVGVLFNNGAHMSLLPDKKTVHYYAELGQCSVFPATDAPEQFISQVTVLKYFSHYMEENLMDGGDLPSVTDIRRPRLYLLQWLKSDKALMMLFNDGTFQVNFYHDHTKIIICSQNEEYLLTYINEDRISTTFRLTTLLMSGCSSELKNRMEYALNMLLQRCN
Serine/threonine-protein kinase 3 (Homo sapiens), sequence (Q13188 whole entry): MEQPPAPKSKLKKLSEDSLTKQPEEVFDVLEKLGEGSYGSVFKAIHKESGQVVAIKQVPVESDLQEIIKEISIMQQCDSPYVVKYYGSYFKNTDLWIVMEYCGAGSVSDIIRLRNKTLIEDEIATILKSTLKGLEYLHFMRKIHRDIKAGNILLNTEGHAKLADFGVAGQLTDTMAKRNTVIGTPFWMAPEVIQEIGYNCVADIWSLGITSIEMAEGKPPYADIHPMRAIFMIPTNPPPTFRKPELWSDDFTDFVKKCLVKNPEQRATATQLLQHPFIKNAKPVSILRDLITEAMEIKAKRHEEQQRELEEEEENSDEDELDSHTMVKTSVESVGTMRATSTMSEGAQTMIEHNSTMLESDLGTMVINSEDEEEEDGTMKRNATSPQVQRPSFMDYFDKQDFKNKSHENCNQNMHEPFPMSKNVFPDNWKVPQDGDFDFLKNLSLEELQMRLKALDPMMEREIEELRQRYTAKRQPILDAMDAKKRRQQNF
Myosin light chain kinase 2, skeletal/cardiac muscle (Homo sapiens), sequence (Q9H1R3 whole entry): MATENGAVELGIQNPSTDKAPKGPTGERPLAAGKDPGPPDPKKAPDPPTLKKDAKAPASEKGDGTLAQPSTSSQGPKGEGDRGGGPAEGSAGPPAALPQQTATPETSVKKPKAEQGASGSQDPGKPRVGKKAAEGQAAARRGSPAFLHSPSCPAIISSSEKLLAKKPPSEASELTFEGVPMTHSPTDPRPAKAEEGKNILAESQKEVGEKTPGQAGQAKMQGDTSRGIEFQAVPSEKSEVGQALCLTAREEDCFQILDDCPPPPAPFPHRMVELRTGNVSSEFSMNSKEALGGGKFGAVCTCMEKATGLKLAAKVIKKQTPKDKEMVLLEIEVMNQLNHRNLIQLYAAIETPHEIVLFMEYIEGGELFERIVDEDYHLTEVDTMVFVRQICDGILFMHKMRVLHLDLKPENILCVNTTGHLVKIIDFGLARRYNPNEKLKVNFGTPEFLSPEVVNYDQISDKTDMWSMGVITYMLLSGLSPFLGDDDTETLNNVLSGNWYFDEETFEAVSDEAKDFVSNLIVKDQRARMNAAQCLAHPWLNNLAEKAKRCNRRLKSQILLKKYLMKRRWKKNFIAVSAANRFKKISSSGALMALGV
Calcium/calmodulin-dependent protein kinase type II subunit alpha (Homo sapiens), sequence (Q9UQM7 whole entry): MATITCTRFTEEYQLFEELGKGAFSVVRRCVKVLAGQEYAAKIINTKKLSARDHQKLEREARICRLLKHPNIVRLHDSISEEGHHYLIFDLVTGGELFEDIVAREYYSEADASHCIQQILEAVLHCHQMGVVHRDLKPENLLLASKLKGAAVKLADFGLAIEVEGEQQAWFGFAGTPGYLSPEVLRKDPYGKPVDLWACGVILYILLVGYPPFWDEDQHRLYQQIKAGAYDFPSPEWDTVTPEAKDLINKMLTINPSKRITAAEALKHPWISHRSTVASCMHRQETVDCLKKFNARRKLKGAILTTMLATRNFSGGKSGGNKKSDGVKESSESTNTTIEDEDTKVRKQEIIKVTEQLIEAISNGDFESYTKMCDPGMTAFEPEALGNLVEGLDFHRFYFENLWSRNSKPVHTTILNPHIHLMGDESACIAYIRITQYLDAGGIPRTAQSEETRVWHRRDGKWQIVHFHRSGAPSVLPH

C=CC(=O)Nc1cc(-n2c(=O)ccc3cnc4ccc(-c5ccc(NS(C)(=O)=O)cc5)cc4c32)ccc1C
Activity [1]: 94%
Activity [2]: 93%
Activity [3]: 93%
inhibition [4]: inactive
GI50 (DU-145): 4.38 µM
Activity [5]: 87%
Activity [6]: 80%
Activity [7]: 93%
Activity [8]: 76%
inhibition [9]: Active
Activity [10]: 92%
Activity [11]: 98%
Activity [12]: 72%
Activity [13]: 80%
Activity [14]: 84%
Activity [15]: 70.3%
Activity [16]: 86%
Activity [17]: 96%
Activity [18]: 98%
Activity [19]: 91%
Activity [20]: 87%
Activity [21]: 99%
Activity [22]: 72%
Activity [23]: 62%
Activity [24]: 80%
Activity [25]: 64.2%
Activity [26]: 80%
GI50 (BaF3): 3.64 µM
Activity [27]: 85%
Activity [28]: 62%
inhibition [29]: inactive
Activity [30]: 93%
